Laboratory results from patent US20110152379A1, “COMPOSITION FOR CONTROL OF AGING AND/OR EXTENSION OF LIFE, CONTAINING DAPSONE AS ACTIVE INGREDIENT” (priority 2008, published 2011).

How the values were obtained:
C. elegans = experiment: Vitality (movements) of worms at 23 days; type: in vivo; settings: 23 days after adult; FIG. 4
Description: At this time, the arrows indicate the initial positions of worms.

ATP = experiment: Measurement of ATP amount in C. elegans; type: in vivo; settings: C. elegans treated with DDS; FIG. 9
Method: The amount of ATP was measured by slightly modifying the method as mentioned above. In order to, analyze the total amount of ATP, C. elegans was cultured by feeding only on PABA or by feeding on PABA and dapsone, and then was washed with S Basal buffer solution (0.1 M NaCl/0.05 M potassium phosphate buffer, pH 6.0) to remove a contaminant and prepare a sample for measuring. The sample was ultimately adjusted to be 100 ul and then froze at −80° C. C. elegans that was frozen was immediately heated for 15 minutes to erupt ATP and then maintained at a cold condition. Since then, the residue of C. elegans was removed by using a centrifuge (at 15,000 g for 5 minutes). The amount of ATP was measured by using the reagent of bioluminescence assay kit CLS II (Roche Molecular Biochemicals) and Luminometer (available from PerkinElmer company). The amount of ATP was standardized with the amount of protein.

[1] = target: T1, Type I pyruvate kinase of rabbit muscle (Oryctolagus cuniculus, UniProt P11974); experiment: Pyruvate kinase activity in vitro (LDH-coupled, 340 nm); type: biochemical; settings: DDS added directly along with PK; FIG. 16A
T1 construct: purchased Sigma; host or cells: rabbit muscle
T1 sequence (P11974 whole entry): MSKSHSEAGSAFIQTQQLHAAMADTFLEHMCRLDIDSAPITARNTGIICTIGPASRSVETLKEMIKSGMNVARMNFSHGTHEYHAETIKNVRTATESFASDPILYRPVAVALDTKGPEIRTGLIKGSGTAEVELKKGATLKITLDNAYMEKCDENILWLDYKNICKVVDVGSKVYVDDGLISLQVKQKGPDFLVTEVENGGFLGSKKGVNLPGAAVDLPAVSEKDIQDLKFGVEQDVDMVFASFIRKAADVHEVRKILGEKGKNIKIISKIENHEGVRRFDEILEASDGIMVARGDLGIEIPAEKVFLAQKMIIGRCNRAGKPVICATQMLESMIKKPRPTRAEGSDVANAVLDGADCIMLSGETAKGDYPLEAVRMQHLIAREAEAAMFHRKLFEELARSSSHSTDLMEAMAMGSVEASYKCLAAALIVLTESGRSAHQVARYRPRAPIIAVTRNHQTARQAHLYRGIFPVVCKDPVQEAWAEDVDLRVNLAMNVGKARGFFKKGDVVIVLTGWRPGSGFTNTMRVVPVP
Method: (§1) PK activity was analyzed through the decrease degree of absorbance at 340 nm by using the change result from pyruvate and NADH to lactate and NAD by lactate dehydrogenase (LDH). The pyruvate and ATP used for the above process were produced from phosphoenolpyruvate (PEP) and ADP by PK. The analysis in vitro was measured by adding directly DDS along with PK to the above reaction mixture and the analysis in vivo was measured by adding worms that fed on DDS.
(§2) Samples were homogenized by rupturing C. elegans with glass bead Precellys 24 homogenizer, twice for 20 seconds, at 5000 rpm in a 100 mM potassium phosphate buffer, pH 7.6, at 37° C. A CHAPS was added to the homogenized sample to be 1% of the final concentration and then centrifuged at 15000 g for 20 minutes. The measurement of pyruvate kinase(PK) activity was performed at 37° C. by adding 300 uL of the reaction mixture contained 100 mM potassium phosphate buffer at pH 7.6 and 37° C., 100 mM MgSO4, 1.3 mM β-NADH, 5000 units/mL of lactate dehydrogenase (LDH), 2 mM adenosine diphosphate (ADP) and 17 mM phosphoenolpyruvate (PEP) into the sample. The change of oxidation degree of NADH was measured at 340 nm of absorbance. PK 1 unit was defined as the change into 1.0 umole of pyruvate per a minute at pH 7.6 and 37° C. […] Type I pyruvate kinase (Sigma) of rabbit muscle was used for in vitro experiment.

pyruvate kinase = experiment: Pyruvate kinase activity in vivo (worms that fed on DDS); set-up: species or system C. elegans; settings: FIG. 16B
Method: as §1, §2

human diploid fibroblast = experiment: Survival rate of human diploid fibroblast treated with PQ (CCK-8); settings: DDS pretreatment (0.1, 1, 5, 20 and 50 uM) 3 hours, then 1 mM PQ 48 hours; FIG. 23
Method: The above cell was cultured by adding Cell Counting Kit-8 for 48 hours and then the survival ability of cell was measured. In addition, DPI (5 uM) was pretreated for 30 minutes and NAC (2 mM) was pretreated for 3 hours, and then 1 mM of PQ was treated as a positive control.
The evaluation of survival rate of cell was performed by using Counting Kit (CCK-8) from Dojindo Laboratory Company (Japan). The human diploid fibroblast was cultured at 96-well plate for 24 hours before treating. […] The absorbance was measured at 450 nm.

NOX4 = NOX4 mRNA level by RT-PCR in PQ-treated human diploid fibroblast; type: cell-based; settings: 1 mM PQ for 5 minutes, FIG. 26
Method: The amount of NOX4 (HDF specific) mRNA, which is a source for generating a cytosolic superoxide anion, increased by PQ was measured. For FIG. 26B, it was quantitived as % rate as compared with a control (non-treated human diploid fibroblast).
RNA of the human diploid fibroblast was isolated by using Trizol Reagent (MRC Cincinnati, USA), and NOX4 and GAPDH were measured through RT-PCR by using Biometra T Gradient PCR (Biometra, Goettingen, Germany) machine. A specific NOX primer; 5′-[…]-3′ (Forward Primer) and 5′-[…]-3′ (Reverse Primer); Primer for GAPDH 5′-[…]-3′ (Forward Primer) and 5′-[…]-3′ (Reverse Primer) were used as primers. DNA that was manipulated by PCR was isolated through 1.2% agarose gel electrophoresis, stained with EtBr to be visualized and then taken a photography that can be shown through UV.

PKCβ = experiment: PKC phosphorylation induced by PQ, Western blot; type: cell-based; settings: human diploid fibroblast; 1 mM PQ; FIG. 28
Method: The isolated sample was transferred to a nitrocellulose and analyzed through Western Blot using MS601 (Total OXPHOS Complexes Detection Kit, MitoSciences, containing antibodies against SDH30 subunit of complex II (5 μg/ml), Core2 subunit of complex III (0.2 μg/ml), COXII subunit of complex IV (2 μg/ml), and subunit α of F1-ATPase of complex V (0.2 μg/ml)), PCKpan-p, PCKα/β-p, PKCδ-p (Phospho-PKC antibody Sampler Kit, Cell Signaling Technology), PKC α, PCKβ, PKCδ (Life Technologies), β-Actin (Sigma), and the like. The measurement was performed by using a horseradish […] secondary antibodies (Zymed) and ECL (Pierce). The results were shown through visualizing by using Autoradiographic film (Image Reader, LAS-3000Fujifilm, Japan).

[2] = tested on: membrane potential of mitochondria; experiment: Membrane potential of mitochondria, DiOC6 assay; type: cell-based, human; settings: pretreated with DDS (3 hours) or DPI (30 minutes), then 1 mM PQ 24 hours; FIG. 29B
Method: The protein amount of mitochondria constituent complex was measured by using Western Blot using Complex I (20 kDa ND6 subunit), Complex II (30 kDa FeS, non-heme iron protein, SDHB), Complex III (47 kDa core protein 2), Complex IV (18 kDa subunit IV), Complex V (55 kDa subunit a ATP synthase), and the like. […] The membrane potential (Δψm) of mitochondria used DiOC6. […] Since then, the above fibroblast was treated with 40 nM of DiOC6 for 15 minutes. The results were measured by using Cary Eclipse Fluorescence Spectrophotometer (Varian, Calif., USA) and the excitation wavelength and emission wavelength were measured at 480 nm and 520 nm, respectively.
The change of membrane potential (Δψm) of mitochondria was measured by using a cationic dye, DiOC6 that is a specific fluorescent material for mitochondria. An aspect of the change was measured by using Fluorescence Spectrophotometer. The cell was cultured in 40 nM DiQC6 for 15 minutes and then the fluorescent material that was left was removed by using PBS. The analysis was performed by using Cary Eclipse fluorescence spectrophotometer (Varian, Calif., USA), and then the excitation wavelength was measured at 480 nm, and the emission wavelength was measured at 520 nm.

SMILES: Nc1ccc(S(=O)(=O)c2ccc(N)cc2)cc1 [DDS, 4,4′-diaminodiphenylsulfone]
- movement of worms (C. elegans): more strong active movement
- ATP amount (ATP): decreased
- biochemical activity of PK in vitro [1]: suppresses
- biochemical activity of PK in vivo (pyruvate kinase): suppresses
- viability of human diploid fibroblast compared with the cell having the cytotoxic of PQ (human diploid fibroblast): improved
- NOX4 expression increased by PQ (NOX4): decreases
- PKCβ phosphorylation (activity) increased by PQ (PKCβ): reduced
- decrease of membrane potential induced by PQ [2]: meaningfully maintained
